# In patent publication US9012433B2, “Substituted tetracycline compounds” (Paratek Pharmaceuticals, Inc., priority 2006, dated 2015):
# Columns and labels:
# S. aureus RN450 [1] = assay: In vivo anti-bacterial activity, S. aureus model; settings: Staphylococcus aureus, sc; mice, lethal IP S. aureus RN450, single subcutaneous dose 5 mg/kg, 24 hours; read-out: Percent Survival
# Experimental: Groups of five mice were injected intraperitoneally with a lethal dose of S. aureus RN450 in a medium of mucin. Mice were evaluated at 24 hours to determine survival. […] In some instances, a dose response study was performed with the compound such that a PD50 (a dose of compound that protects 50% of the animals) could be calculated.
# [2] = test system: carrageenan induced rat paw inflammation; assay: Rat carrageenan-induced paw edema inflammatory model; type: in vivo; settings: IP, various doses, FIG. 1
# Experimental: The model used a sub-plantar injection of carrageenan in the rat to induce an inflammatory response. The test compound or saline (control) was administered IP 30 minutes before a subplantar injection of carrageenan (1.5 mg/0.1 mL). Paw volume was measured […] before subplantar injection and again 3 hours after the injection of carrageenan using a plethysmometer. Significant differences as determined by a Kruskal-Wallis One Way ANOVA are noted between the inflammation of the untreated controls versus treated animals […]
# [3] = test system: B. thetaiotaomicron ATCC 29741; assay: Antibacterial MIC, CLSI broth microdilution; type: cell-based; settings: Bacteroides thetaiotaomicron, ATCC29741; 35° C., 18-24 hours; read-out: MIC B. thetaiotaomicron ATCC 29741
# P. acnes ATCC 11827 = assay: Antibacterial MIC, CLSI broth microdilution; type: cell-based; settings: Cutibacterium acnes, ATCC11827; 35° C., 18-24 hours
# Method in brief: (§1)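 CLSI broth microdilution in cation-supplemented Mueller Hinton broth, inoculum 1×10^5 cfu from 0.5 McFarland cultures diluted 1:200. Incubated 35° C in ambient air for 18-24 hours. Growth read spectrophotometrically and checked manually; MIC (μg/mL) is the lowest compound dilution inhibiting growth.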
# E. coli MG 1655 = assay: Antibacterial MIC, CLSI broth microdilution; type: cell-based; settings: Escherichia coli, MG1655; 35° C., 18-24 hours
# Method in brief: as §1
# P. acnes ATCC 6919 = assay: Antibacterial MIC, CLSI broth microdilution; type: cell-based; settings: Cutibacterium acnes, ATCC6919; 35° C., 18-24 hours
# Method in brief: as §1
# E. coli ATCC 25922 = assay: Antibacterial MIC, CLSI broth microdilution; type: cell-based; settings: Escherichia coli, ATCC25922; 35° C., 18-24 hours
# Method in brief: as §1
# [4] = test system: S. pneumoniae 157E - Strep; assay: Antibacterial MIC, CLSI broth microdilution; type: cell-based; settings: Streptococcus pneumoniae, 157ESTREP; 35° C., 18-24 hours; lysed horse blood
# Method in brief: as §1
# S. aureus RN450 [5] = assay: Antibacterial MIC, CLSI broth microdilution; type: cell-based; settings: Staphylococcus aureus, RN450; 35° C., 18-24 hours
# Method in brief: as §1
# in vitro = type: cell-based
# Method in brief: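 COS-1 or CHO cells exposed to serial dilutions of test compound for 24 hours. Metabolic activity then read with resazurin (Alamar Blue): 2 hours incubation plus 30 minutes dark at room temperature, fluorescence ex 535/em 590 nm, treated versus control.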
smiles,measurement,setting,value
CCO/N=C(/C)c1ccc(O)c2c1C[C@H]1C[C@H]3[C@H](N(C)C)C(O)=C(C(N)=O)C(=O)[C@@]3(O)C(O)=C1C2=O [A],responders at 5 mg/kg,S. aureus RN450 [1],100%
same,modulation of carrageenan induced inflammation compared with doxycycline,[2],improved activity
same,MIC,[3],> 8 µg/mL
same,MIC,P. acnes ATCC 11827,< 4 µg/mL
same,MIC,E. coli MG 1655,4 to 8 µg/mL
same,MIC,P. acnes ATCC 6919,< 4 µg/mL
same,MIC,E. coli ATCC 25922,< 4 µg/mL
same,MIC,[4],< 4 µg/mL
same,MIC,S. aureus RN450 [5],< 4 µg/mL
same,IC50 at 24 h,in vitro; African green monkey,< 35 µg/mL
same,IC50 at 24 h,in vitro; Chinese hamster,< 35 µg/mL
